14 compounds from patent US20230000840A1, “THERAPEUTIC AGENTS AND PROPHYLACTIC AGENTS FOR FUNCTIONAL GASTROINTESTINAL DISORDERS AND XEROSTOMIA” (NIPPON SHINYAKU CO., LTD., priority 2019, published 2023) can be followed below.

The subject of one test is anesthetized mice. Briefly: Measurement of secreted saliva amount in anesthetized mice. The following applies: for Amount of saliva secreted: urethane-anesthetized male ICR mice, 10 mg/kg intravenous, cotton balls weighed after 30 minutes, average ± standard error. Type of test: in vivo, mouse. How it is done:
8-week-aged male ICR mice (Japan SLC, Inc.) were anesthetized with urethane (1650 mg/kg, intraperitoneal administration). After about 1 hour, a test compound or a vehicle (physiological saline containing 10% DMSO (OTSUKA NORMAL SALINE, manufactured by Otsuka Pharmaceutical Factory, Inc.)) was intravenously administered at 10 mg/kg, and immediately after that, one or two absorbent cotton wool balls ([…]) (Roller Cotton (cotton ball) SS, manufactured by Nichiei Co., Ltd.) were inserted into the mouth. The difference between the weight of the absorbent cotton balls after 30 minutes from insertion and the weight of the absorbent cotton balls before insertion was defined as an amount of saliva secreted. At this time, the test compound was dissolved in DMSO and then diluted 10-fold with physiological saline. The administration volumes of the test compound and the vehicle were each set to 5 mL/kg. The experiment was carried out in three parts. The number of cases in each administration group was 3-4.

The next test relates to ileum. Briefly: Magnus test: carbachol-induced contraction of isolated rat ileum. Conditions: test compound 10 μM, then carbachol 50 nM, 100% = carbachol 1000 nM, 0% = DMSO + carbachol 50 nM, average ± standard error, read-out: Enhancement ratio P of the contraction force. How it is done: 9- to 15-week-aged SD female rats (Japan SLC, Inc.) were exsanguinated to death by amputation of carotid artery under isoflurane anesthesia. Then, the ileum was removed from each rat, and cut to a length of 2 cm while excising the mesentery and connective tissue, to prepare an intestinal sample. In a Magnus tank, this sample was immersed and suspended in 20 mL of a Krebs solution at 37° C. (118 mM NaCl, 4.7 mM KCl, 2.5 mM CaCl2, 1.2 mM MgSO4, 1.2 mM KH2PO4, 11 mM D-glucose, 20 mM NaHCO3) aerated with a mixed gas of 95% O2 and 5% CO2. Then, a load of 1 g was applied to the sample to stabilize the tension.
One end of the sample was connected to an isotonic transducer (IT-10, Medical Agent), and tension (contraction force) data was imported to a personal computer via Power Lab (registered trademark) (A&D Instruments Limited). Carbachol (Carbamylcholine Chloride, Cat. No. 036-09841, manufactured by FUJIFILM Wako Pure Chemical Industries, Ltd.) was added to the Krebs solution in the Magnus tank such that the final concentration thereof was 1000 nM, and contraction of the sample was checked. A contraction force Tb of the sample at this time was defined as 100%. Then, the Magnus tank was washed with a Krebs solution three times to wash away carbachol, and the Magnus tank was finally filled with 20 mL of a Krebs solution.
Next, dimethyl sulfoxide (DMSO, Cat. No. 13445-74, manufactured by NACALAI TESQUE, INC.) was added to the Krebs solution in the Magnus tank, then carbachol was added to the Krebs solution in the Magnus tank such that the final concentration thereof was 50 nM, and contraction of the sample was checked. A contraction force Ta of the sample at this time was defined as 0%. Then, the Magnus tank was washed with a Krebs solution three times to wash away carbachol and DMSO, and the Magnus tank was finally filled with 20 mL of a Krebs solution. Next, a test compound dissolved in DMSO was added to the Krebs solution in the Magnus tank such that the final concentration thereof was 10 μM, then carbachol was added to the Krebs solution in the Magnus tank such that the final concentration thereof was 50 nM, and contraction of the sample was checked.
As described above, the contraction force Tb of the sample when carbachol was added at a final concentration of 1000 nM was defined as 100%, and the contraction force Ta of the sample when carbachol was added at a final concentration of 50 nM under the condition that DMSO was added first instead of the test compound was defined as 0%. The contraction force of the sample when carbachol was added at a final concentration of 50 nM under the condition that the test compound was added first at a final concentration of 10 μM was denoted by Tc, and an enhancement ratio P (unit: %) of the contraction force by the test compound was calculated according to the following equation (2). The increase in contraction force by the test compound was evaluated on the basis of the enhancement ratio P. The number of cases in each addition group was 3 to 7.
P=100×(Tc−Ta)/(Tb−Ta) (2)

Consider `COCC1(CN(C)c2cc(-c3cc(F)cc(C(F)(F)F)c3)nc3nc(-c4cnc(N5CCC(F)(C(=O)O)CC5)cn4)[nH]c23)CCC1` [Example 2, 4-Fluoro-1-(5-{5-[3-fluoro-5-(trifluoromethyl)phenyl]-7-[{[1-(methoxymethyl)cyclobutyl]methyl}(methyl)amino]-1H-imidazo[4,5-b]pyridin-2-yl}pyrazin-2-yl)piperidine-4-carboxylic acid], for which the “Amount of saliva secreted” value in the test on anesthetized mice came out at 9.73 ± 3.61 mg. Also, in the test with ileum, the activation at 10 µM was 61.5 ± 8%.
The corresponding values for `CCOc1cc(-c2cc(N(C)CC3(COC)CCCC3)c3[nH]c(-c4cnc(N5CCC(C(=O)O)CC5)cn4)nc3n2)cc(C(F)(F)F)n1` [Example 9, 1-(5-{5-[2-Ethoxy-6-(trifluoromethyl)pyridin-4-yl]-7-[{[1-(methoxymethyl)cyclopentyl]methyl}(methyl)amino]-1H-imidazo[4,5-b]pyridin-2-yl}pyrazin-2-yl)piperidine-4-carboxylic acid] are 34.73 ± 11.39 mg and 36.9 ± 6.43%.
The corresponding values for `COCC1(CN(C)c2cc(-c3cnc(C4CC4)c(C(F)(F)F)c3)nc3nc(-c4ccc(OC5CCN(CC(=O)O)CC5)cc4F)[nH]c23)CCCC1` [Example 11, [4-(4-{5-[6-Cyclopropyl-5-(trifluoromethyl)pyridin-3-yl]-7-[{[1-(methoxymethyl)cyclopentyl]methyl}(methyl)amino]-1H-imidazo[4,5-b]pyridin-2-yl}-3-fluorophenoxy)piperidin-1-yl]acetic acid] are 51.85 ± 7.37 mg and 30.1 ± 3.79%.
On the same counts, the results for `COCC1(CN(C)c2cc(-c3cnc(C4CC4)c(C(F)(F)F)c3)nc3nc(-c4cnc(N5CCN(CCC(=O)O)CC5)cn4)[nH]c23)CCCCC1` [Example 10] are 329.83 ± 49.36 mg and 19.3 ± 5.52%.
With `COCC1(CN(C)c2cc(-c3cc(C4CC4)nc(C(F)(F)F)c3)nc3nc(-c4cnc(N5CCN(CCC(=O)[O-])C[C@H]5C)cn4)[nH]c23)CCCCC1.[Na+]` [Example 14, Sodium 3-[(3R)-4-(5-{5-[2-cyclopropyl-6-(trifluoromethyl)pyridin-4-yl]-7-[{[1-(methoxymethyl)cyclohexyl]methyl}(methyl)amino]-1H-imidazo[4,5-b]pyridin-2-yl}pyrazin-2-yl)-3-methylpiperazin-1-yl]propanoate], in the test with anesthetized mice, the “Amount of saliva secreted” value was 142.70 ± 23.51 mg. Also, the activation at 10 µM in the test on ileum stood at 65.1 ± 15%.
The corresponding values for `COCC1(CN(C)c2cc(-c3cnc(C4CC4)c(C(F)(F)F)c3)nc3nc(-c4cnc(N5CCN(CCC(=O)[O-])C[C@H]5C)cn4)[nH]c23)CCCC1.[Na+]` [Example 15, Sodium 3-[(3R)-4-(5-{5-[6-cyclopropyl-5-(trifluoromethyl)pyridin-3-yl]-7-[{[1-(methoxymethyl)cyclopentyl]methyl}(methyl)amino]-1H-imidazo[4,5-b]pyridin-2-yl}pyrazin-2-yl)-3-methylpiperazin-1-yl]propanoate] are 304.98 ± 58.25 mg and 79.3 ± 12.2%.
The corresponding values for `CCOCC1(CN(C)c2cc(-c3cnc(C4CC4)c(C(F)(F)F)c3)nc3nc(-c4cnc(N5CCC(C(=O)O)CC5)cn4)[nH]c23)CCCC1` [Example 8, 1-(5-{5-[6-Cyclopropyl-5-(trifluoromethyl)pyridin-3-yl]-7-[{[1-(ethoxymethyl)cyclopentyl]methyl}(methyl)amino]-1H-imidazo[4,5-b]pyridin-2-yl}pyrazin-2-yl)piperidine-4-carboxylic acid] are 49.13 ± 11.95 mg and 12.4 ± 5.31%.
On the same counts, the results for `CCOc1ncc(-c2cc(N(C)CC3(COC)CCCC3)c3[nH]c(-c4ccc(N5CCC(C(=O)O)CC5)cc4F)nc3n2)cc1C(F)(F)F` [Example 6, 1-(4-{5-[6-Ethoxy-5-(trifluoromethyl)pyridin-3-yl]-7-[{[1-(methoxymethyl)cyclopentyl]methyl}(methyl)amino]-1H-imidazo[4,5-b]pyridin-2-yl}-3-fluorophenyl)piperidine-4-carboxylic acid] are 11.37 ± 2.87 mg and 26.7 ± 5.04%.
In the case of `COC[C@@H]1CN(c2cnc(-c3nc4nc(-c5cnc(C6CC6)c(C(F)(F)F)c5)cc(N(C)CC5(COC)CCCCC5)c4[nH]3)cn2)CCN1CCC(=O)O` [Example 12, 3-[(2S)-4-(5-{5-[6-Cyclopropyl-5-(trifluoromethyl)pyridin-3-yl]-7-[{[1-(methoxymethyl)cyclohexyl]methyl}(methyl)amino]-1H-imidazo[4,5-b]pyridin-2-yl}pyrazin-2-yl)-2-(methoxymethyl)piperazin-1-yl]propanoic acid], the “Amount of saliva secreted” value in the test on anesthetized mice was 131.75 ± 28.63 mg. Further, the activation at 10 µM in the test on ileum was 49.3 ± 11%.
The corresponding values for `CCOc1ncc(-c2cc(N(C)CC3(COC)CCC3)c3[nH]c(-c4cnc(N5CCC(C(=O)O)CC5)cn4)nc3n2)cc1C(F)(F)F` [Example 3, 1-(5-{5-[6-Ethoxy-5-(trifluoromethyl)pyridin-3-yl]-7-[{[1-(methoxymethyl)cyclobutyl]methyl}(methyl)amino]-1H-imidazo[4,5-b]pyridin-2-yl}pyrazin-2-yl)piperidine-4-carboxylic acid] are 27.23 ± 5.94 mg and 57.3 ± 7.24%.
With `CCOCC1(CN(C)c2cc(-c3cnc(C4CC4)c(C(F)(F)F)c3)nc3nc(-c4cnc(N5CCN(CCC(=O)[O-])C[C@H]5C)cn4)[nH]c23)CCCC1.[Na+]` [Example 13, sodium 3-[(3R)-4-(5-{5-[6-cyclopropyl-5-(trifluoromethyl)pyridin-3-yl]-7-[{[1-(ethoxymethyl)cyclopentyl]methyl}(methyl)amino]-1H-imidazo [4,5-b]pyridin-2-yl}pyrazin-2-yl)-3-methylpiperazin-1-yl]propanoate], the “Amount of saliva secreted” value with anesthetized mice is 214.40 ± 51.06 mg. For the same compound, the activation at 10 µM with ileum amounted to 17.7 ± 12.7%.
In the case of `CC[C@@H]1C(=O)OC[C@@H]1Cc1cncn1C` [pilocarpine, reference compound], the Salivation promoting effect result with anesthetized mice (urethane-anesthetized mice, dose not given) is listed as “exhibited a salivation promoting effect”.
Take `CCOc1cc(-c2cc(N(C)CC3(COC)CCC3)c3[nH]c(-c4cnc(N5CCC(C(=O)O)CC5)cn4)nc3n2)cc(C(F)(F)F)n1.Cl.Cl` [Example 4, 1-(5-{5-[2-Ethoxy-6-(trifluoromethyl)pyridin-4-yl]-7-[{[1-(methoxymethyl)cyclobutyl]methyl}(methyl)amino]-1H-imidazo[4,5-b]pyridin-2-yl}pyrazin-2-yl)piperidine-4-carboxylic acid dihydrochloride]: the “Amount of saliva secreted” value in the test on anesthetized mice was found to be 77.35 ± 16.66 mg. For the same compound, in the test on ileum, the activation at 10 µM was found to be 59.3 ± 7.17%.
On the same counts, the results for `CCOc1cc(-c2cc(N(C)CC(C)(C)COC)c3[nH]c(-c4cnc(N5CCC(C(=O)O)CC5)cn4)nc3n2)cc(C(F)(F)F)n1` [Example 7, 1-(5-{5-[2-Ethoxy-6-(trifluoromethyl)pyridin-4-yl]-7-[(3-methoxy-2,2-dimethylpropyl)(methyl)amino]-1H-imidazo[4,5-b]pyridin-2-yl}pyrazin-2-yl)piperidine-4-carboxylic acid] are 73.40 ± 28.54 mg and 25.8 ± 6.38%.
